The text below walks through data of ChEMBL document CHEMBL1128565, “Aspartyl alpha-((diphenylphosphinyl)oxy)methyl ketones as novel inhibitors of interleukin-1 beta converting enzyme. Utility of the diphenylphosphinic acid leaving group for the inhibition of cysteine proteases” (J Med Chem, 1995).

Experiment [1] has as its target T1, Calpain-1 catalytic subunit (Homo sapiens) (UniProt P07384).
T1 sequence (whole entry): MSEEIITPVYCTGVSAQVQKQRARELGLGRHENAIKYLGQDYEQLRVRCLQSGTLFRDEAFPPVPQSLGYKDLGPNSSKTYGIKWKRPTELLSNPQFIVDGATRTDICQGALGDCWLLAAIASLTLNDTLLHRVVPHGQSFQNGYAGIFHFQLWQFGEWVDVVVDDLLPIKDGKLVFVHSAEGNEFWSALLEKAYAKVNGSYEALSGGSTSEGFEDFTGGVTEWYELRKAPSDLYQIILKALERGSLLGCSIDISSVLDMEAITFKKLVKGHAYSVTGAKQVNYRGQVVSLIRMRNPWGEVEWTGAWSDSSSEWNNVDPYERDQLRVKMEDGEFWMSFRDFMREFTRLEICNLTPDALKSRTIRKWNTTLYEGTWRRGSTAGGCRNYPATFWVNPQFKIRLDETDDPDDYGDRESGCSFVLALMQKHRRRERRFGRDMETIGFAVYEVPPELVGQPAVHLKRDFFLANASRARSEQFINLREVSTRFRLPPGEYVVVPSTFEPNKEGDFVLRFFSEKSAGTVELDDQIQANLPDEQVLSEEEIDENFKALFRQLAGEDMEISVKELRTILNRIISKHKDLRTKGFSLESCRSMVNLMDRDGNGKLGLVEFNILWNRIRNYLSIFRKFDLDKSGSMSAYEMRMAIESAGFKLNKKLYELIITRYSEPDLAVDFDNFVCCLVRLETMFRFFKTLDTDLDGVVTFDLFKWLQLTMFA
The experiment can be described thus: Inhibition of Human erythrocyte calpain 1 using a continuous assay at pH 7.5 and 8 degrees Centigrade.

In experiment [2] the target is Cathepsin B (Homo sapiens) (UniProt P07858). The experiment can be described thus: Inhibition of Cathepsin B at pH 6.5 and 360000 (1/M 1/s) at 8 degrees Centigrade.
The next experiment has as its target T2, Caspase-1 (Homo sapiens) (UniProt P29466).
T2 sequence (whole entry): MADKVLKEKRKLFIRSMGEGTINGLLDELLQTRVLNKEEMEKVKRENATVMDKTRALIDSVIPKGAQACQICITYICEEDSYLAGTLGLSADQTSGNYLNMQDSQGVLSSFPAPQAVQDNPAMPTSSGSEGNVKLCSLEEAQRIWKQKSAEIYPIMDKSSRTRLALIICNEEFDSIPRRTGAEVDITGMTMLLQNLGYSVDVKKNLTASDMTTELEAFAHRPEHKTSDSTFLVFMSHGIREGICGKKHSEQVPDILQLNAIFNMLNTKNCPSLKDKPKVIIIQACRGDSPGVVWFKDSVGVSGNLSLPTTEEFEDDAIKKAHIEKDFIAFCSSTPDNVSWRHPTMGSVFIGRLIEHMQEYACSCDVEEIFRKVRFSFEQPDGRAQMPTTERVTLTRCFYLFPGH
Briefly: Inhibition of interleukin-1-beta converting enzyme at pH 7.4, 37 degree C.

Experiment [3] addresses Cathepsin B (Homo sapiens) (UniProt P07858). The experiment can be described thus: Inhibition of Cathepsin B at pH 6.5 and 25 degrees Centigrade.
In experiment [4] the target is T1, Calpain-1 catalytic subunit (Homo sapiens). The experiment can be described thus: Inhibition of Human erythrocyte calpain 1 using a continuous assay at pH 7.5 and 8 degrees Centigrade.
Experiment [5] has as its target Cathepsin B (Homo sapiens) (UniProt P07858). Briefly: Inhibition of Cathepsin B at pH 6.5 and 250 (1/M 1/s) 8 degrees Centigrade.
In experiment [6] the target is Procathepsin L (Homo sapiens) (UniProt P07711). Briefly: Inhibitory activity against Cathepsin L at 8 degrees Centigrade.
Experiment [7] deals with Cathepsin B (Homo sapiens) (UniProt P07858). The experiment can be described thus: Inhibition of Cathepsin B at 8 degrees Centigrade.

Molecules are shown by their SMILES.

Chain of Procathepsin L (Homo sapiens) (P07711 114-333 limits assumed): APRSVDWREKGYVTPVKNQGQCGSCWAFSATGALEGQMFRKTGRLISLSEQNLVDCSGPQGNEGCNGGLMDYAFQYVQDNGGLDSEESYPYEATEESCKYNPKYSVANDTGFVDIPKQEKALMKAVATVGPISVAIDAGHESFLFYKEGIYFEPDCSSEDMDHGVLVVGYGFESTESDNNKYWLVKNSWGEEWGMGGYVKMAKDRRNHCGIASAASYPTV

With `C[C@H](NC(=O)[C@@H](Cc1ccccc1)NC(=O)OCc1ccccc1)C(=O)COC(=O)c1c(Cl)cccc1Cl`, the values for the K obs / 1 (in experiment [1]; in experiment [2]; on Caspase-1 (Homo sapiens)) were 300 M⁻¹ s⁻¹, 1.5e+06 M⁻¹ s⁻¹ and less than 500 M⁻¹ s⁻¹, respectively.
In the case of `C[C@H](NC(=O)[C@@H](Cc1ccccc1)NC(=O)OCc1ccccc1)C(=O)COP(=O)(c1ccccc1)c1ccccc1`, the K obs / 1 in experiment [3] was 400000 M⁻¹ s⁻¹; on Caspase-1 (Homo sapiens), less than 500 M⁻¹ s⁻¹.
Consider `O=C(O)C[C@H](NC(=O)OCc1ccccc1)C(=O)COP(=O)(c1ccccc1)c1ccccc1`, for which the K obs / 1 on Caspase-1 (Homo sapiens) came out at 11800 M⁻¹ s⁻¹.
For the compound `CC(C)C[C@@H](NC(=O)OCc1ccccc1)C(=O)N[C@@H](Cc1ccccc1)C(=O)COC(=O)c1c(Cl)cccc1Cl`, the K obs / 1 in experiment [4] was 11400 M⁻¹ s⁻¹; in experiment [5], less than 1000 M⁻¹ s⁻¹.
With `CC(C)[C@H](NC(=O)OCc1ccccc1)C(=O)N[C@@H](C)C(=O)N[C@@H](CC(=O)O)C(=O)COP(=O)(c1ccccc1)c1ccccc1`, the K obs / 1 in experiment [3] is 1700 M⁻¹ s⁻¹.
With `CC(C)[C@@H](NC(=O)OCc1ccccc1)C(=O)N[C@@H](CC(=O)O)C(=O)COP(=O)(c1ccc(Cl)cc1)c1ccc(Cl)cc1`, on Caspase-1 (Homo sapiens), the K obs / 1 turned out to be 77300 M⁻¹ s⁻¹.
On to `CC(C)C[C@@H](NC(=O)[C@@H](C)NC(=O)OCc1ccccc1)C(=O)N[C@H](Cc1ccccc1)C(=O)COC(=O)c1c(F)ccc(OCCN2CCOCC2)c1F`, for which the K obs / 1 in experiment [1] is 32000 M⁻¹ s⁻¹; in experiment [6], 28000 M⁻¹ s⁻¹; in experiment [7], 400 M⁻¹ s⁻¹.
The like results for `CC(C)C[C@@H](NC(=O)[C@@H](C)NC(=O)OCc1ccccc1)C(=O)N[C@H](Cc1ccccc1)C(=O)COC(=O)c1c(F)cccc1F` were, in that order, 31000 M⁻¹ s⁻¹, 300 M⁻¹ s⁻¹ and 100 M⁻¹ s⁻¹.
Regarding `CC(C)C[C@@H](NC(=O)OCc1ccccc1)C(=O)N[C@@H](Cc1ccccc1)C(=O)COP(=O)(c1ccccc1)c1ccccc1`, the K obs / 1 in experiment [1] was 10000 M⁻¹ s⁻¹; in experiment [3] it was less than 500 M⁻¹ s⁻¹; on Caspase-1 (Homo sapiens) it was less than 500 M⁻¹ s⁻¹.
Consider `CC(C)[C@@H](NC(=O)OCc1ccccc1)C(=O)N[C@@H](CC(=O)O)C(=O)CO[PH](=O)c1ccccc1` (some centres not stated), for which, at Caspase-1 (Homo sapiens), the K obs / 1 was less than 500 M⁻¹ s⁻¹.
On the same count and under the same terms, in the case of `CC(C)[C@@H](NC(=O)OCc1ccccc1)C(=O)N[C@@H](CC(=O)O)C(=O)COC(=O)c1c(Cl)cccc1Cl` it was 30000 M⁻¹ s⁻¹.
In the case of `CC(C)C[C@@H](NC(=O)OCc1ccccc1)C(=O)N[C@@H](Cc1ccccc1)C(=O)COc1cc(C(F)(F)F)nn1-c1ccccc1`, the K obs / 1 in experiment [4] and in experiment [3] was less than 500 M⁻¹ s⁻¹ each time.
With `C[C@H](NC(=O)[C@@H](Cc1ccccc1)NC(=O)OCc1ccccc1)C(=O)COc1cc(C(F)(F)F)nn1-c1ccccc1`, the K obs / 1 is less than 500 M⁻¹ s⁻¹ in experiment [4], 2300 M⁻¹ s⁻¹ in experiment [3] and less than 500 M⁻¹ s⁻¹ at Caspase-1 (Homo sapiens).
On to `CC(C)[C@@H](NC(=O)OCc1ccccc1)C(=O)N[C@@H](CC(=O)O)C(=O)COc1cc(C(F)(F)F)nn1-c1ccccc1`, for which the K obs / 1 was less than 500 M⁻¹ s⁻¹ in experiment [3] and 20000 M⁻¹ s⁻¹ at Caspase-1 (Homo sapiens).
`CC(C)[C@H](NC(=O)OCc1ccccc1)C(=O)N[C@@H](C)C(=O)N[C@@H](CC(=O)O)C(=O)COP(=O)(c1ccc(Cl)cc1)c1ccc(Cl)cc1`: the K obs / 1 on Caspase-1 (Homo sapiens) was found to be 230000 M⁻¹ s⁻¹.
For `CC(C)[C@@H](NC(=O)OCc1ccccc1)C(=O)N[C@@H](CC(=O)O)C(=O)COP(=O)(c1ccccc1)c1ccccc1`, the K obs / 1 in experiment [3] is less than 500 M⁻¹ s⁻¹; at Caspase-1 (Homo sapiens), 50200 M⁻¹ s⁻¹.
As for `CC(C)[C@@H](NC(=O)OCc1ccccc1)C(=O)N[C@@H](CC(=O)O)C(=O)COP(C)(C)=O`, the K obs / 1 on Caspase-1 (Homo sapiens) was 12300 M⁻¹ s⁻¹.
